From the NIST ThermoML archive (doi:10.1021/je0503554)
Where “and” joins values, the source holds several entries; their conditions need not be identical. Equal entries are not always repeated. ± gives the expanded uncertainty stated by the source.

Test: activity coefficient (dimensionless); of the first substance listed, at infinite dilution; xn = mol fraction of the nth substance listed
Details: Liquid, Chromatography, x1 = 0

C1=CCCC=C1 [1,3-cyclohexadiene] + CCCCCC[n+]1ccn(C)c1.O=S(=O)([N-]S(=O)(=O)C(F)(F)F)C(F)(F)F
activity coefficient (312.05 K): 1.8 ± 0.12
activity coefficient (322.65 K): 1.76 ± 0.12
activity coefficient (333.15 K): 1.72 ± 0.12
activity coefficient (343.65 K): 1.67 ± 0.11
activity coefficient (354.25 K): 1.62 ± 0.11

C1COCCO1 [1,4-dioxane] + CCCCCC[n+]1ccn(C)c1.O=S(=O)([N-]S(=O)(=O)C(F)(F)F)C(F)(F)F
activity coefficient (375.15 K): 0.04
activity coefficient (396.15 K): 0.047

C=CCCCCCCCC [1-decene] + CCCCCC[n+]1ccn(C)c1.O=S(=O)([N-]S(=O)(=O)C(F)(F)F)C(F)(F)F
activity coefficient (312.25 K): 16 ± 1.1
activity coefficient (322.85 K): 15.2 ± 1
activity coefficient (333.15 K): 14.1 ± 0.96
activity coefficient (333.25 K): 14.4 ± 0.98
activity coefficient (343.75 K): 13.5 and 13.3
activity coefficient (354.15 K): 13.1 ± 0.89
activity coefficient (364.55 K): 11.9 ± 0.81

C=CCCCCCCCCCC [1-dodecene] + CCCCCC[n+]1ccn(C)c1.O=S(=O)([N-]S(=O)(=O)C(F)(F)F)C(F)(F)F
activity coefficient (333.15 K): 25.6 ± 1.8
activity coefficient (343.75 K): 23.1 and 22.7
activity coefficient (354.15 K): 21.1 and 20.5
activity coefficient (364.55 K): 19.3 ± 1.3
activity coefficient (364.65 K): 18.7 ± 1.3
activity coefficient (374.95 K): 16.9 ± 1.1

C=CCCCCC [1-heptene] + CCCCCC[n+]1ccn(C)c1.O=S(=O)([N-]S(=O)(=O)C(F)(F)F)C(F)(F)F
activity coefficient (301.95 K): 6.36 ± 0.43
activity coefficient (312.45 K): 6.18 ± 0.42
activity coefficient (322.95 K): 5.96 ± 0.41
activity coefficient (333.45 K): 5.69 ± 0.39
activity coefficient (343.95 K): 5.44 ± 0.37
activity coefficient (354.35 K): 5.26 ± 0.36

C=CCCCCCCC [1-nonene] + CCCCCC[n+]1ccn(C)c1.O=S(=O)([N-]S(=O)(=O)C(F)(F)F)C(F)(F)F
activity coefficient (312.25 K): 12.5 ± 0.85
activity coefficient (322.75 K): 11.8 ± 0.81
activity coefficient (333.15 K): 11.2 ± 0.76
activity coefficient (333.35 K): 11.1 ± 0.75
activity coefficient (343.75 K): 10.5 ± 0.71
activity coefficient (354.15 K): 9.99 ± 0.68
activity coefficient (364.55 K): 9.54 ± 0.65

C=CCCC [1-pentene] + CCCCCC[n+]1ccn(C)c1.O=S(=O)([N-]S(=O)(=O)C(F)(F)F)C(F)(F)F
activity coefficient (301.95 K): 3.63 ± 0.23
activity coefficient (312.45 K): 3.54 ± 0.23
activity coefficient (322.95 K): 3.43 ± 0.24
activity coefficient (333.45 K): 3.39 ± 0.25

C=CCCCCCCCCC [1-undecene] + CCCCCC[n+]1ccn(C)c1.O=S(=O)([N-]S(=O)(=O)C(F)(F)F)C(F)(F)F
activity coefficient (322.65 K): 21 ± 1.4
activity coefficient (333.15 K): 19.2 ± 1.3
activity coefficient (343.75 K): 17.4 ± 1.2
activity coefficient (359.4 K): 15.4 ± 1.1
activity coefficient (369.85 K): 14.3 ± 0.97
activity coefficient (375.05 K): 14.1 ± 0.96

CC(C)CO [2-methyl-1-propanol] + CCCCCC[n+]1ccn(C)c1.O=S(=O)([N-]S(=O)(=O)C(F)(F)F)C(F)(F)F
activity coefficient (301.65 K): 2.46 ± 0.17
activity coefficient (312.15 K): 2.19 ± 0.15
activity coefficient (322.85 K): 1.9 ± 0.13
activity coefficient (333.35 K): 1.68 ± 0.11

CCC(C)(C)O [2-methylbutan-2-ol] + CCCCCC[n+]1ccn(C)c1.O=S(=O)([N-]S(=O)(=O)C(F)(F)F)C(F)(F)F
activity coefficient (301.65 K): 1.7 ± 0.11
activity coefficient (312.25 K): 1.53 ± 0.1
activity coefficient (322.75 K): 1.4 ± 0.09
activity coefficient (333.25 K): 1.3 ± 0.08
activity coefficient (343.75 K): 1.22 ± 0.08
activity coefficient (354.05 K): 1.14 ± 0.07
activity coefficient (364.55 K): 1.06 ± 0.07

CC(C)(C)O [2-methylpropan-2-ol] + CCCCCC[n+]1ccn(C)c1.O=S(=O)([N-]S(=O)(=O)C(F)(F)F)C(F)(F)F
activity coefficient (301.65 K): 1.7 ± 0.11
activity coefficient (312.15 K): 1.51 ± 0.1
activity coefficient (322.85 K): 1.34 ± 0.09
activity coefficient (333.35 K): 1.21 ± 0.08

CC(C)=O [acetone] + CCCCCC[n+]1ccn(C)c1.O=S(=O)([N-]S(=O)(=O)C(F)(F)F)C(F)(F)F
activity coefficient (301.75 K): 0.352 ± 0.032
activity coefficient (302.25 K): 0.352 ± 0.032
activity coefficient (312.25 K): 0.357 ± 0.033
activity coefficient (322.85 K): 0.362 ± 0.033
activity coefficient (333.35 K): 0.366 ± 0.033
activity coefficient (343.85 K): 0.371 ± 0.033
activity coefficient (354.25 K): 0.375 ± 0.033

CC#N [acetonitrile] + CCCCCC[n+]1ccn(C)c1.O=S(=O)([N-]S(=O)(=O)C(F)(F)F)C(F)(F)F
activity coefficient (312.25 K): 0.456 ± 0.036
activity coefficient (322.85 K): 0.446 ± 0.036
activity coefficient (333.35 K): 0.434 ± 0.035
activity coefficient (343.85 K): 0.426 ± 0.035
activity coefficient (354.25 K): 0.413 ± 0.034
